According to patent US8853258B2, “C-linked hydroxamic acid derivatives useful as antibacterial agents” (Pfizer Inc., priority 2009, dated 2014):

Key:
[1] = test system: Acinetobacter baumanii/haemolyticus: Multidrug-resistant clinical isolate (AB-3167); test: MIC determination (CLSI), AB-3167; format: cell-based; settings: Acinetobacter baumanii/haemolyticus multidrug-resistant clinical isolate AB-3167
In short: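 Multidrug-resistant clinical isolate AB-3167 (A. baumannii/haemolyticus) tested for minimum inhibitory concentration following CLSI dilution susceptibility standards M7-A7 and M100-S18.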

[2] = test system: Klebsiella pneumoniae: Ciprofloxacin-resistant isolate, ESBL, clinical isolate (KP-3700); test: MIC determination (CLSI), KP-3700; format: cell-based
In short: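 Strain KP-3700, a clinical isolate producing extended-spectrum β-lactamases and resistant to ciprofloxacin, was tested. Minimum inhibitory concentrations determined via CLSI dilution methodology (M7-A7; M100-S18).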

[3] = test system: Pseudomonas aeruginosa UI-18: Wild-type (PA-7); test: MIC determination (CLSI), PA-7; format: cell-based; settings: Pseudomonas aeruginosa UI-18 wild-type PA-7
In short: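 Wild-type P. aeruginosa UI-18 tested for minimum inhibitory concentration. Broth/agar dilution following CLSI standards (M7-A7, M100-S18).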

[4] = biological target: Pseudomonas aeruginosa LpxC enzyme (Pseudomonas aeruginosa (strain ATCC 15692 / DSM 22644 / CIP 104116 / JCM 14847 / LMG 12228 / 1C / PRS 101 / PAO1), UniProt P47205); test: IC50 Assay, LpxC Enzyme from P. aeruginosa (PA LpxC Enzyme IC50); format: biochemical; settings: P. aeruginosa LpxC enzyme; read-out: PA LpxC enzyeme IC50
In short: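 Product formation quantified by RapidFire HTMS after a 1 h enzyme reaction quenched with 1N HCl.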

[5] = test system: Escherichia coli EC-1: VOGEL, mouse virulent; test: MIC determination (CLSI), EC-1; format: cell-based; settings: Escherichia coli EC-1 VOGEL, mouse virulent
In short: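 E. coli Vogel, a mouse-virulent strain (EC-1), was tested. MICs were set by dilution susceptibility testing per CLSI standards M7-A7/M100-S18.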

Cc1cc(CCC(C)(C(=O)NO)S(C)(=O)=O)ccc1-c1ccc(F)cc1 (stereo not shown) [Example 160]
AB-3167 MIC [1]: 16 mg/L | KP-3700 MIC [2]: 8 mg/L | PA-7 MIC [3]: 4 mg/L | IC50 [4]: 2.54 nM | EC-1 MIC [5]: 2 mg/L

Cc1cc(-c2ccc(C#N)cc2)ccc1CCC(C)(C(=O)NO)S(C)(=O)=O (stereo not shown) [Example 161]
AB-3167 MIC [1]: ≧64 mg/L | KP-3700 MIC [2]: 16 mg/L | PA-7 MIC [3]: 4 mg/L | IC50 [4]: 0.725 nM | EC-1 MIC [5]: 1 mg/L

Cc1cc(CCC(C)(C(=O)NO)S(C)(=O)=O)ccc1-c1ccc(C#N)cc1 (stereo not shown) [Example 162]
AB-3167 MIC [1]: 16 mg/L | KP-3700 MIC [2]: 16 mg/L | PA-7 MIC [3]: 4 mg/L | IC50 [4]: 0.241 nM | EC-1 MIC [5]: 2 mg/L

CC(CCc1ccc(-c2ccc(N3CCOCC3)cc2)cc1)(C(=O)NO)S(C)(=O)=O (stereo not shown) [Example 165]
AB-3167 MIC [1]: ≧64 mg/L | KP-3700 MIC [2]: 8 mg/L | PA-7 MIC [3]: 8 mg/L | IC50 [4]: 0.295 nM | EC-1 MIC [5]: 0.5 mg/L

CN1CCN(c2ccc(-c3ccc(CCC(C)(C(=O)NO)S(C)(=O)=O)cc3)cc2)CC1 (stereo not shown) [Example 166]
AB-3167 MIC [1]: ≧64 mg/L | KP-3700 MIC [2]: 16 mg/L | PA-7 MIC [3]: 2 mg/L | IC50 [4]: 1.17 nM | EC-1 MIC [5]: 4 mg/L

CC(CCc1ccc(-c2ccc(F)cc2)c(F)c1)(C(=O)NO)S(C)(=O)=O (stereo not shown) [Example 167]
AB-3167 MIC [1]: 8 mg/L | KP-3700 MIC [2]: 4 mg/L | PA-7 MIC [3]: 0.5 mg/L | IC50 [4]: 0.235 nM | EC-1 MIC [5]: 1 mg/L

CC(CCc1ccc(-c2ccc(C#N)cc2)cc1F)(C(=O)NO)S(C)(=O)=O (stereo not shown) [Example 168]
AB-3167 MIC [1]: ≧64 mg/L | KP-3700 MIC [2]: 2 mg/L | PA-7 MIC [3]: 1 mg/L | IC50 [4]: 0.427 nM | EC-1 MIC [5]: 1 mg/L

CC(CCc1ccc(-c2ccc(C(=O)CO)cc2)cc1)(C(=O)NO)S(C)(=O)=O (stereo not shown) [Example 169]
AB-3167 MIC [1]: 32 mg/L | KP-3700 MIC [2]: 4 mg/L | PA-7 MIC [3]: 1 mg/L | IC50 [4]: 0.2 nM | EC-1 MIC [5]: 2 mg/L

COc1cccc(-c2ccc(CC[C@](C)(C(=O)NO)S(C)(=O)=O)cc2)c1 [Example 170]
AB-3167 MIC [1]: 16 mg/L | KP-3700 MIC [2]: ≧64 mg/L | PA-7 MIC [3]: ≧64 mg/L | IC50 [4]: 54 nM | EC-1 MIC [5]: ≧64 mg/L

COc1cc(CCC(C)(C(=O)NO)S(C)(=O)=O)ccc1-c1ccccc1 (stereo not shown) [Example 171]
AB-3167 MIC [1]: ≧64 mg/L | KP-3700 MIC [2]: 16 mg/L | PA-7 MIC [3]: 32 mg/L | IC50 [4]: 14.6 nM | EC-1 MIC [5]: 4 mg/L

C[C@@](CCc1ccc(-c2ccc(OCCN3CCOCC3)cc2)cc1)(C(=O)NO)S(C)(=O)=O [Example 172]
AB-3167 MIC [1]: ≧64 mg/L | KP-3700 MIC [2]: 4 mg/L | PA-7 MIC [3]: 4 mg/L | IC50 [4]: 0.512 nM | EC-1 MIC [5]: 0.5 mg/L

CC(CCc1ccc(-c2ccc3c(c2)CNC3)cc1)(C(=O)NO)S(C)(=O)=O (stereo not shown) [Example 173]
AB-3167 MIC [1]: ≧64 mg/L | KP-3700 MIC [2]: ≧64 mg/L | PA-7 MIC [3]: 16 mg/L | IC50 [4]: 2.68 nM | EC-1 MIC [5]: ≧64 mg/L

CC(CCc1ccc(-c2ccc3nonc3c2)cc1)(C(=O)NO)S(C)(=O)=O (stereo not shown) [Example 174]
AB-3167 MIC [1]: ≧64 mg/L | KP-3700 MIC [2]: 8 mg/L | PA-7 MIC [3]: 2 mg/L | IC50 [4]: 0.54 nM | EC-1 MIC [5]: 4 mg/L

C[C@](CCc1ccc(-c2ccc3c(c2)OCCO3)cc1)(C(=O)NO)S(C)(=O)=O [Example 175]
AB-3167 MIC [1]: ≧64 mg/L | KP-3700 MIC [2]: ≧64 mg/L | PA-7 MIC [3]: ≧64 mg/L | IC50 [4]: 14.6 nM | EC-1 MIC [5]: 32 mg/L

CC(CCc1ccc(-c2ccc3c(c2)OCO3)cc1)(C(=O)NO)S(C)(=O)=O (stereo not shown) [Example 176]
AB-3167 MIC [1]: 16 mg/L | KP-3700 MIC [2]: 2 mg/L | PA-7 MIC [3]: 0.5 mg/L | IC50 [4]: 0.0303 nM | EC-1 MIC [5]: 0.5 mg/L

CC(CCc1ccc(-c2ccc(O)cc2)c(F)c1)(C(=O)NO)S(C)(=O)=O (stereo not shown) [Example 177]
AB-3167 MIC [1]: 32 mg/L | KP-3700 MIC [2]: 8 mg/L | PA-7 MIC [3]: 2 mg/L | IC50 [4]: 0.306 nM | EC-1 MIC [5]: 1 mg/L

CC(CCc1ccc(-c2ccc(O)cc2)cc1F)(C(=O)NO)S(C)(=O)=O (stereo not shown) [Example 178]
AB-3167 MIC [1]: 8 mg/L | KP-3700 MIC [2]: 4 mg/L | PA-7 MIC [3]: 1 mg/L | IC50 [4]: 0.0592 nM | EC-1 MIC [5]: 1 mg/L

C[C@@](CCc1ccc(-c2ccc(OCCCN3CCOCC3)cc2)cc1)(C(=O)NO)S(C)(=O)=O [Example 179]
AB-3167 MIC [1]: 2 mg/L | KP-3700 MIC [2]: 2 mg/L | PA-7 MIC [3]: 2 mg/L | IC50 [4]: 0.172 nM | EC-1 MIC [5]: 0.125 mg/L

CC(=O)c1cc(-c2ccc(CCC(C)(C(=O)NO)S(C)(=O)=O)cc2)ccc1O (stereo not shown) [Example 180]
AB-3167 MIC [1]: 16 mg/L | KP-3700 MIC [2]: 16 mg/L | PA-7 MIC [3]: 8 mg/L | IC50 [4]: 0.826 nM | EC-1 MIC [5]: 4 mg/L

CC(=O)c1ccc(-c2ccc(CCC(C)(C(=O)NO)S(C)(=O)=O)cc2)cc1O (stereo not shown) [Example 181]
AB-3167 MIC [1]: 8 mg/L | KP-3700 MIC [2]: 8 mg/L | PA-7 MIC [3]: 2 mg/L | IC50 [4]: 0.138 nM | EC-1 MIC [5]: 0.5 mg/L

CC(=O)c1ccc(-c2ccc(CC[C@](C)(C(=O)NO)S(C)(=O)=O)cc2)cc1 [Example 182]
AB-3167 MIC [1]: 16 mg/L | KP-3700 MIC [2]: 1 mg/L | PA-7 MIC [3]: 0.5 mg/L | IC50 [4]: 0.0674 nM | EC-1 MIC [5]: 0.5 mg/L

CC(CCc1ccc(-c2ccc(C(=O)CO)cc2)cc1F)(C(=O)NO)S(C)(=O)=O (stereo not shown) [Example 183]
AB-3167 MIC [1]: ≧64 mg/L | KP-3700 MIC [2]: 4 mg/L | PA-7 MIC [3]: 2 mg/L | IC50 [4]: 0.387 nM | EC-1 MIC [5]: 2 mg/L

CC(=O)c1ccc(-c2ccc(CCC(C)(C(=O)NO)S(C)(=O)=O)cc2)cc1F (stereo not shown) [Example 184]
AB-3167 MIC [1]: 32 mg/L | KP-3700 MIC [2]: 2 mg/L | PA-7 MIC [3]: 0.5 mg/L | IC50 [4]: 0.155 nM | EC-1 MIC [5]: 4 mg/L
